Values quoted from earlier work, collected in patent US20220095646A1, “METHODS FOR THE PRODUCTION AND USE OF MYCELIATED AMINO ACID-SUPPLEMENTED FOOD COMPOSITIONS” (MycoTechnology, Inc., priority 2019, published 2022).

For N[C@@H](CC(=O)O)C(=O)O [Aspartic acid], the “Taste thresholds (Kato et al. 1989), sour” value is listed as 0.03 mg/mL and the “Taste thresholds (Kato et al. 1989), umami” value is listed as 1 mg/mL.
In the case of N[C@@H](CCC(=O)O)C(=O)O [Glutamic acid], the “Taste thresholds (Kato et al. 1989), sour” value is given as 0.05 mg/mL and the “Taste thresholds (Kato et al. 1989), umami” value is given as 0.3 mg/mL.
For CC[C@H](C)[C@H](N)C(=O)O [Isoleucine], the “Taste thresholds (Kato et al. 1989), bitter” value is given as 0.9 (bitter) mg/mL.
In the case of NCCCC[C@H](N)C(=O)O [Lysine], the “Taste thresholds (Kato et al. 1989), sweet and bitter” value (sweet and bitter) is listed as 0.5 (sweet and bitter) mg/mL.
For C[C@@H](O)[C@H](N)C(=O)O [Threonine], the “Taste thresholds (Kato et al. 1989), sweet” value (sweet) is given as 2.6 (sweet) mg/mL.
In the case of CC(C)[C@H](N)C(=O)O [Valine], the “Taste thresholds (Kato et al. 1989), bitter” value is listed as 0.4 (bitter) mg/mL.
